Assay results reported in ChEMBL document CHEMBL2203257 (Bioorg Med Chem Lett, 2012).

Key:
Ephrin type-A receptor 3 = Ephrin type-A receptor 3 (Homo sapiens, UniProt P29320); assay: Inhibition of EPHA3
[1] = molecular target: BMP-2-inducible protein kinase (Homo sapiens, UniProt Q9NSY1); assay: Inhibition of BMP2K
Ephrin type-B receptor 4 = Ephrin type-B receptor 4 (Homo sapiens, UniProt P54760); assay: Inhibition of EPHB4
[2] = molecular target: Cyclin-dependent kinase 5 (Homo sapiens, UniProt Q00535); assay: Inhibition of CDK5
[3] = molecular target: Mitogen-activated protein kinase 14 (Homo sapiens, UniProt Q16539); assay: Inhibition of MAPK14
Sequence of Mitogen-activated protein kinase 14 (Q16539 whole entry): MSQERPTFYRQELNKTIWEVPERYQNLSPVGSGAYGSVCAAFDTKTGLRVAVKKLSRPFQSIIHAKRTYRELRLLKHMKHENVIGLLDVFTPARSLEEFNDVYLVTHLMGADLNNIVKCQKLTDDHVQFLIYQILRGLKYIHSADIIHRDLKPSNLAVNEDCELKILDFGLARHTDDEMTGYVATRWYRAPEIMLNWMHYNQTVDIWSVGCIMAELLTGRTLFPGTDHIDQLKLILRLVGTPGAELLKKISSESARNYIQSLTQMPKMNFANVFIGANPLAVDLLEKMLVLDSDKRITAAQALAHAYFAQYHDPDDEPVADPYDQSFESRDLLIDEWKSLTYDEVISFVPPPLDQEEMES

[4] = molecular target: Protein-tyrosine kinase 6 (Homo sapiens, UniProt Q13882); assay: Inhibition of PTK6
[5] = molecular target: Interleukin-1 receptor-associated kinase 1 (Homo sapiens, UniProt P51617); assay: Inhibition of IRAK1
[6] = molecular target: Epidermal growth factor receptor (Homo sapiens, UniProt P00533); assay: Inhibition of EGFR
[7] = molecular target: Casein kinase I isoform delta (Homo sapiens, UniProt P48730); assay: Inhibition of CSNK1D
[8] = molecular target: Mitogen-activated protein kinase kinase kinase 2 (Homo sapiens, UniProt Q9Y2U5); assay: Inhibition of MAP3K2
Sequence of Mitogen-activated protein kinase kinase kinase 2 (Q9Y2U5 whole entry): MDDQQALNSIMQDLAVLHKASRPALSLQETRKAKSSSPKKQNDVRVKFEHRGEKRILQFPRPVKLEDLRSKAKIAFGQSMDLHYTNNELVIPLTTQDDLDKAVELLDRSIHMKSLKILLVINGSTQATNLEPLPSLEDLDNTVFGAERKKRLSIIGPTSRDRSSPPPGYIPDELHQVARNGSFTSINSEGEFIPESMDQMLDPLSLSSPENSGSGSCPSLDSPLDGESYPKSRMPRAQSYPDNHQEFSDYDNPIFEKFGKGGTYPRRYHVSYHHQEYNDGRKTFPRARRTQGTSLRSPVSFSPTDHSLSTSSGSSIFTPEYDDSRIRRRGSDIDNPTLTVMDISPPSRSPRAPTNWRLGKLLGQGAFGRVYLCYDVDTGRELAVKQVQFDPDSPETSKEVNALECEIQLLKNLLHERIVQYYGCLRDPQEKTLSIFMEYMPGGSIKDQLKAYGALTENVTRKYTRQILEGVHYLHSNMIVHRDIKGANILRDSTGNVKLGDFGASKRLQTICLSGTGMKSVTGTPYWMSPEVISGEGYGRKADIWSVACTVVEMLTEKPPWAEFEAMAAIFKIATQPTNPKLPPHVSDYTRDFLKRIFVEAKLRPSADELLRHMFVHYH

[9] = molecular target: Tyrosine-protein kinase JAK1 (Homo sapiens, UniProt P23458); assay: Inhibition of JAK1
[10] = molecular target: Hepatocyte growth factor receptor (Homo sapiens, UniProt P08581); assay: Inhibition of MET
[11] = molecular target: Casein kinase I isoform gamma-1 (Homo sapiens, UniProt Q9HCP0); assay: Inhibition of CSNK1G1
[12] = molecular target: Serine/threonine-protein kinase D2 (Homo sapiens, UniProt Q9BZL6); assay: Inhibition of PRKD2
[13] = molecular target: Mitogen-activated protein kinase 1 (Homo sapiens, UniProt P28482); assay: Inhibition of MAPK1
[14] = Volume of distribution at steady state […] at 5 mg/kg, po; 1 mg/kg, iv; assay type: ADME, organism-based; conditions: read-out: Vdss
[15] = molecular target: Tyrosine-protein kinase Fgr (Homo sapiens, UniProt P09769); assay: Inhibition of FGR
[16] = molecular target: Phosphorylase b kinase gamma catalytic chain, liver/testis isoform (Homo sapiens, UniProt P15735); assay: Inhibition of PHKG2
Sequence of Phosphorylase b kinase gamma catalytic chain, liver/testis isoform (P15735 whole entry, canonical isoform): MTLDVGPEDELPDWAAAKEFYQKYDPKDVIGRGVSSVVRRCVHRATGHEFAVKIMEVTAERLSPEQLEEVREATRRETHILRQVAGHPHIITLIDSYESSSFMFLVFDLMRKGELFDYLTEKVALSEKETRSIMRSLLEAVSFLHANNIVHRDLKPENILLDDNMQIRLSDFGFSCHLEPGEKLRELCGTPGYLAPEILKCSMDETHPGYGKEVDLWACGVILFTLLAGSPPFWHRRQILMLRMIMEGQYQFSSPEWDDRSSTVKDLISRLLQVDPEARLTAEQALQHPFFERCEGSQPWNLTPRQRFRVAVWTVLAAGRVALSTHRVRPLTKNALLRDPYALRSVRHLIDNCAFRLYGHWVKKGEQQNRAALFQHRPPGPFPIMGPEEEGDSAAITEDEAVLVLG

[17] = molecular target: Serine/threonine-protein kinase mTOR (Homo sapiens, UniProt P42345); assay: Inhibition of mTOR
[18] = molecular target: Tyrosine-protein kinase ABL2 (Homo sapiens, UniProt P42684); assay: Inhibition of ABL2
[19] = molecular target: Calcium/calmodulin-dependent protein kinase type II subunit delta (Homo sapiens, UniProt Q13557); assay: Inhibition of CAMK2D
[20] = molecular target: Fibroblast growth factor receptor 1 (Homo sapiens, UniProt P11362); assay: Inhibition of FGFR1
[21] = molecular target: Receptor-interacting serine/threonine-protein kinase 2 (Homo sapiens, UniProt O43353); assay: Inhibition of RIPK2
[22] = molecular target: Cyclin-dependent kinase 6 (Homo sapiens, UniProt Q00534); assay: Inhibition of CDK6
[23] = molecular target: Tyrosine-protein kinase ABL1 (Homo sapiens, UniProt P00519); assay: Inhibition of ABL1
Mus musculus [24] = assay: Antiarthritic activity against collagen-induced arthritis mouse model assessed as inhibition of disease progression at 3 mg/kg, po BID for 14 days; assay type: functional; conditions: 336 h
[25] = molecular target: Dual specificity testis-specific protein kinase 1 (Homo sapiens, UniProt Q15569); assay: Inhibition of TESK1
Cytochrome P450 2C19 = Cytochrome P450 2C19 (Homo sapiens, UniProt P33261); assay: Inhibition of CYP2C19 at >20 uM; assay type: ADME
[26] = molecular target: Serine/threonine-protein kinase TAO1 (Homo sapiens, UniProt Q7L7X3); assay: Inhibition of TAOK1
[27] = molecular target: Serine/threonine-protein kinase SIK3 (Homo sapiens, UniProt Q9Y2K2); assay: Inhibition of KIAA0999
Sequence of Serine/threonine-protein kinase SIK3 (Q9Y2K2 whole entry): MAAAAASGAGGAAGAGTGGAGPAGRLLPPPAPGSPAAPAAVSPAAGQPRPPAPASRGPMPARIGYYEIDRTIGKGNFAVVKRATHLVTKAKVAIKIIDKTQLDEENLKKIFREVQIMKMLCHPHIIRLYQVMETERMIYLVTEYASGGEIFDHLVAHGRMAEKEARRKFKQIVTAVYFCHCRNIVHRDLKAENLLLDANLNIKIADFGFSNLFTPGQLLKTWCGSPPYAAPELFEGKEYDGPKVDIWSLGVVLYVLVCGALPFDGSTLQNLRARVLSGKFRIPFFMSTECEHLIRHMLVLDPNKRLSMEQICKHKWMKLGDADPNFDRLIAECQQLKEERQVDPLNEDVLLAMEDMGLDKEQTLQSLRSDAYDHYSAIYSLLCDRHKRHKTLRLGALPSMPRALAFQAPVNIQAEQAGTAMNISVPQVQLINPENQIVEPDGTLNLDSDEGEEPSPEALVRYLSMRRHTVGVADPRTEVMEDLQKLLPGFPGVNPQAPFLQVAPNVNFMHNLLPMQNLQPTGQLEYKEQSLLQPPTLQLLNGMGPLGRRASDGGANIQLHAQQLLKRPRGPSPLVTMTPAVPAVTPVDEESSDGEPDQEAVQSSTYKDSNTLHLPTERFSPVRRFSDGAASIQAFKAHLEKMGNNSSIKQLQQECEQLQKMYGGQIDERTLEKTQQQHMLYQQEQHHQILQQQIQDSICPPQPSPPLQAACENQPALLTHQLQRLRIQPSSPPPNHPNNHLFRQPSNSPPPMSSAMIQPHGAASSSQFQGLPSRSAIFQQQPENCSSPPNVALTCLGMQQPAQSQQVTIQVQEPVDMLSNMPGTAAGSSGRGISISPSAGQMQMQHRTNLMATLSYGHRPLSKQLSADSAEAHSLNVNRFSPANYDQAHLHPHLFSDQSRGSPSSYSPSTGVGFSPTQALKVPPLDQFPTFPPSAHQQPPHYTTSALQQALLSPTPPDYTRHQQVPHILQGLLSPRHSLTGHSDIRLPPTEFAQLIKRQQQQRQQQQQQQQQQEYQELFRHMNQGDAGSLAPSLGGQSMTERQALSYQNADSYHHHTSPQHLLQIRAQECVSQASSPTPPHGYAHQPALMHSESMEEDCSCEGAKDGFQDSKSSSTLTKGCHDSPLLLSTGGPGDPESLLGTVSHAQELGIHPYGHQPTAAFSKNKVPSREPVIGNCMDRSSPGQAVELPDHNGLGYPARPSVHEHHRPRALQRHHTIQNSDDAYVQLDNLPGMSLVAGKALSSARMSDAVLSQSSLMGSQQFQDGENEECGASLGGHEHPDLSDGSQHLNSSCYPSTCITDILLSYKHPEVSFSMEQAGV

[28] = molecular target: Dual specificity protein kinase CLK1 (Homo sapiens, UniProt P49759); assay: Inhibition of CLK1
[29] = molecular target: Serine/threonine-protein kinase PAK 4 (Homo sapiens, UniProt O96013); assay: Inhibition of PAK4
[30] = molecular target: Inhibitor of nuclear factor kappa-B kinase subunit epsilon (Homo sapiens, UniProt Q14164); assay: Inhibition of IKBKE
Sequence of Inhibitor of nuclear factor kappa-B kinase subunit epsilon (Q14164 whole entry): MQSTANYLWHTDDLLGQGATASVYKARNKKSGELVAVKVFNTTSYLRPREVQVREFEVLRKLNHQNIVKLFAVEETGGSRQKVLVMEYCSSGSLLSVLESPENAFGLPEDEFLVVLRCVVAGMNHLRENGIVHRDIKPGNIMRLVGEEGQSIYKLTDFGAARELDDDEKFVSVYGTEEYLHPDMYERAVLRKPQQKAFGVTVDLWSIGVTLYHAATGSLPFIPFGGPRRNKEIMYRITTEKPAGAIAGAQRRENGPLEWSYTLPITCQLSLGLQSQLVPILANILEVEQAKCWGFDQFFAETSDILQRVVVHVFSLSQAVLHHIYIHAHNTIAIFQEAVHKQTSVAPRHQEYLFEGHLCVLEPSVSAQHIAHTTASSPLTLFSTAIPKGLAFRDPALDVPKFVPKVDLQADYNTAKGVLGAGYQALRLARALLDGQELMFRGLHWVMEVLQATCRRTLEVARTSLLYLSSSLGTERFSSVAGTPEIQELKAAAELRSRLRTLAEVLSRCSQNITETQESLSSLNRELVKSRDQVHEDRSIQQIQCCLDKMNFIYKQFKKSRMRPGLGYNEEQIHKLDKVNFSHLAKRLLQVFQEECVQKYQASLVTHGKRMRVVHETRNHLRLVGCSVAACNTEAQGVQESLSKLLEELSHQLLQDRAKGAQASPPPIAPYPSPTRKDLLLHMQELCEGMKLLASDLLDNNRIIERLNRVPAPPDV

[31] = molecular target: Tyrosine-protein kinase JAK2 (Homo sapiens, UniProt O60674); assay: Inhibition of JAK2
Mus musculus [32] = assay: Antiinflammatory activity in mouse air pouch model assessed as effect on IL-8-induced migration of granulocytes into air pouch at 10 mg/kg, po; assay type: functional
[33] = Oral bioavailability in cynomolgus monkey; assay type: ADME, organism-based, Macaca fascicularis; conditions: in vivo
[34] = molecular target: Dual specificity mitogen-activated protein kinase kinase 2 (Homo sapiens, UniProt P36507); assay: Inhibition of MAP2K2
Sequence of Dual specificity mitogen-activated protein kinase kinase 2 (P36507 whole entry): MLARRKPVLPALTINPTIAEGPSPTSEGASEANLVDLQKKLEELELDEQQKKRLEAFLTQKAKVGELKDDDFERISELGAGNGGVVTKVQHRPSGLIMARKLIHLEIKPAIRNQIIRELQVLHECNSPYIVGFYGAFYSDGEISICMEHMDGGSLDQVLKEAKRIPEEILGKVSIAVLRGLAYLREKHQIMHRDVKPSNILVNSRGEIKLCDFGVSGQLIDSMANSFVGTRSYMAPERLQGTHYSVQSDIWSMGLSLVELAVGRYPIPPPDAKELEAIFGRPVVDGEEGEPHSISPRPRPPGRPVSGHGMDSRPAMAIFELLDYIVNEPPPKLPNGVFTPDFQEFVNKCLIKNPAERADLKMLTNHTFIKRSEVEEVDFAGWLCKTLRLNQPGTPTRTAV

Ephrin type-A receptor 2 = Ephrin type-A receptor 2 (Homo sapiens, UniProt P29317); assay: Inhibition of EPHA2
Activin receptor type-1 = Activin receptor type-1 (Homo sapiens, UniProt Q04771); assay: Inhibition of ACVR1
[35] = molecular target: Dual specificity mitogen-activated protein kinase kinase 5 (Homo sapiens, UniProt Q13163); assay: Inhibition of MAP2K5
Cytochrome P450 1A2 = Cytochrome P450 1A2 (Homo sapiens, UniProt P05177); assay: Inhibition of CYP1A2 at >20 uM; assay type: ADME
[36] = molecular target: Mitogen-activated protein kinase 11 (Homo sapiens, UniProt Q15759); assay: Inhibition of MAPK11
[37] = molecular target: Proto-oncogene tyrosine-protein kinase receptor Ret (Homo sapiens, UniProt P07949); assay: Inhibition of RET
[38] = molecular target: Mitogen-activated protein kinase kinase kinase 3 (Homo sapiens, UniProt Q99759); assay: Inhibition of MAP3K3
[39] = molecular target: Calcium/calmodulin-dependent protein kinase kinase 1 (Homo sapiens, UniProt Q8N5S9); assay: Inhibition of CAMKK1
[40] = molecular target: Dual specificity mitogen-activated protein kinase kinase 1 (Homo sapiens, UniProt Q02750); assay: Inhibition of MAP2K1
[41] = molecular target: Serine/threonine-protein kinase SIK2 (Homo sapiens, UniProt Q9H0K1); assay: Inhibition of SIK2
TGF-beta receptor type-1 = TGF-beta receptor type-1 (Homo sapiens, UniProt P36897); assay: Inhibition of TGFBR1
[42] = molecular target: Phosphatidylinositol 4,5-bisphosphate 3-kinase catalytic subunit alpha isoform (Homo sapiens, UniProt P42336); assay: Inhibition of PIK3Ca
Sequence of Phosphatidylinositol 4,5-bisphosphate 3-kinase catalytic subunit alpha isoform (P42336 whole entry, canonical isoform): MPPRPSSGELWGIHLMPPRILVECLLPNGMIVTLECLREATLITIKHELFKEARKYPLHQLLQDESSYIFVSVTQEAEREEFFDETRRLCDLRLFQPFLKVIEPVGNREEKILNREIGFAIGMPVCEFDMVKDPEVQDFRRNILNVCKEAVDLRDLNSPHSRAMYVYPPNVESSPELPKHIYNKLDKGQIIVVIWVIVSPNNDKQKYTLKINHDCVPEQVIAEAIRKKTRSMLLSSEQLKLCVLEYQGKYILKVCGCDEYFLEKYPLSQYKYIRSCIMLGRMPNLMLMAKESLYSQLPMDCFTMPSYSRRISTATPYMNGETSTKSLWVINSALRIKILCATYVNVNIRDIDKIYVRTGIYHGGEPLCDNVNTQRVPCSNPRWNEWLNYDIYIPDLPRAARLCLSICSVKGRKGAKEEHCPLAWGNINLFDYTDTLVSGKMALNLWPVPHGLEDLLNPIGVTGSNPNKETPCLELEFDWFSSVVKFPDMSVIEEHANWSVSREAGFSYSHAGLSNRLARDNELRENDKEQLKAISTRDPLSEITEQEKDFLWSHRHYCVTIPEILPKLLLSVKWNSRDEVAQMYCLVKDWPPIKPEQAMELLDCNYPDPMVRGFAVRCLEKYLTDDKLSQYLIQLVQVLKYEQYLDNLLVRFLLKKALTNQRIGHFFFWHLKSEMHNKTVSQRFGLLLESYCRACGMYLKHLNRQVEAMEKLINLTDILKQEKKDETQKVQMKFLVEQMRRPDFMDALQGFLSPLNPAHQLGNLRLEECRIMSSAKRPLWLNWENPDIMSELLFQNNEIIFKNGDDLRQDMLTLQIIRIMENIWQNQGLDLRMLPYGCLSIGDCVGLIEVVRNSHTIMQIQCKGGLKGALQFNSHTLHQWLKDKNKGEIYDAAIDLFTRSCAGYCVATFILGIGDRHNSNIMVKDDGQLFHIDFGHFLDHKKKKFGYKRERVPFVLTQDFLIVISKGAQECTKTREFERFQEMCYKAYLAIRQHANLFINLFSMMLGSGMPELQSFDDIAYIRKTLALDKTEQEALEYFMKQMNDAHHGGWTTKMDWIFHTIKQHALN

[43] = molecular target: Non-receptor tyrosine-protein kinase TYK2 (Homo sapiens, UniProt P29597); assay: Inhibition of TYK2
[44] = molecular target: Serine/threonine-protein kinase N1 (Homo sapiens, UniProt Q16512); assay: Inhibition of PKN1
[45] = molecular target: Protein kinase C beta type (Homo sapiens, UniProt P05771); assay: Inhibition of PRKCB
[46] = molecular target: Tyrosine-protein kinase CSK (Homo sapiens, UniProt P41240); assay: Inhibition of CSK
[47] = molecular target: Casein kinase II subunit alpha (Homo sapiens, UniProt P68400); assay: Inhibition of CSNK2A1

`CC(C)(C)NS(=O)(=O)c1cncc(-c2ccn3nc(N)nc3c2)c1` showed an IC50 (Ephrin type-A receptor 3) greater than 10 µM, an IC50 [1] greater than 10 µM and an IC50 (Ephrin type-B receptor 4) greater than 10 µM. The IC50 [2] was greater than 10 µM, the IC50 [3] was greater than 10 µM and the IC50 [4] was greater than 10 µM. For the same compound, the IC50 [5] was greater than 10 µM, the IC50 [6] was greater than 10 µM and the IC50 [7] was greater than 10 µM. For the same compound, the IC50 [8] was greater than 10 µM, the IC50 [9] was 4.37 µM and the IC50 [10] was greater than 10 µM. It also gave an IC50 [11] of 9.55 µM, an IC50 [12] greater than 10 µM and an IC50 [13] greater than 10 µM. The Vd [14] was 1.3 L/kg, the IC50 [15] was greater than 10 µM and the IC50 [16] was greater than 10 µM. The IC50 [17] was greater than 10 µM, the IC50 [18] was greater than 10 µM and the IC50 [19] was greater than 10 µM. The IC50 [20] was greater than 10 µM, the IC50 [21] was greater than 10 µM and the IC50 [22] was greater than 10 µM. It also gave an IC50 [23] greater than 10 µM, an inhibition in vivo at 3 mg/kg (Mus musculus [24]) of 41% and an IC50 [25] greater than 10 µM. For the same compound, the “inhibition (INH)” value (Cytochrome P450 2C19) was “Active”, the IC50 [26] was greater than 10 µM and the IC50 [27] was greater than 10 µM. For the same compound, the IC50 [28] was greater than 10 µM, the IC50 [29] was 9.33 µM and the IC50 [30] was greater than 10 µM. It also gave an IC50 [31] greater than 10 µM, an Activity (Mus musculus [32]) of 73% and a bioavailability [33] of 88%. For the same compound, the IC50 [34] was greater than 10 µM, the IC50 (Ephrin type-A receptor 2) was greater than 10 µM and the IC50 (Activin receptor type-1) was greater than 10 µM. The IC50 [35] was greater than 10 µM, the “inhibition (INH)” value (Cytochrome P450 1A2) was “Active” and the IC50 [36] was greater than 10 µM. It also gave an IC50 [37] greater than 10 µM, an IC50 [38] greater than 10 µM and an IC50 [39] greater than 10 µM. The IC50 [40] was greater than 10 µM, the IC50 [41] was greater than 10 µM and the IC50 (TGF-beta receptor type-1) was greater than 10 µM. It also gave an IC50 [42] of 2.45 µM, an IC50 [43] greater than 10 µM and an IC50 [44] greater than 10 µM. The IC50 [45] was greater than 10 µM, the IC50 [46] was greater than 10 µM and the IC50 [47] was greater than 10 µM.
